Measurements reported in patent US20230002327A1, “SMALL-MOLECULE REGULATOR OF TLR8” (TSINGHUA UNIVERSITY, priority 2019, published 2023).

What was measured:
TLR8 = target: T1, TLR8 (Homo sapiens, UniProt Q9NR97); experiment: Inhibition of R848-induced signaling in HEK-Blue hTLR8 cell line (Quanti-Blue); type: cell-based; conditions: HEK-Blue hTLR8 cell line; for IC50: R848-induced signaling, value ± standard deviation, at least triplicate; for Remaining R848-induced TLR8 signaling (normalized activity; ligand+DMSO = 1, untreated = 0): ligand+DMSO = 100% activity
T1 construct: host or cells: HEK-Blue hTLR8 (HEK293-derived SEAP reporter cells)
T1 sequence (Q9NR97 27-1041): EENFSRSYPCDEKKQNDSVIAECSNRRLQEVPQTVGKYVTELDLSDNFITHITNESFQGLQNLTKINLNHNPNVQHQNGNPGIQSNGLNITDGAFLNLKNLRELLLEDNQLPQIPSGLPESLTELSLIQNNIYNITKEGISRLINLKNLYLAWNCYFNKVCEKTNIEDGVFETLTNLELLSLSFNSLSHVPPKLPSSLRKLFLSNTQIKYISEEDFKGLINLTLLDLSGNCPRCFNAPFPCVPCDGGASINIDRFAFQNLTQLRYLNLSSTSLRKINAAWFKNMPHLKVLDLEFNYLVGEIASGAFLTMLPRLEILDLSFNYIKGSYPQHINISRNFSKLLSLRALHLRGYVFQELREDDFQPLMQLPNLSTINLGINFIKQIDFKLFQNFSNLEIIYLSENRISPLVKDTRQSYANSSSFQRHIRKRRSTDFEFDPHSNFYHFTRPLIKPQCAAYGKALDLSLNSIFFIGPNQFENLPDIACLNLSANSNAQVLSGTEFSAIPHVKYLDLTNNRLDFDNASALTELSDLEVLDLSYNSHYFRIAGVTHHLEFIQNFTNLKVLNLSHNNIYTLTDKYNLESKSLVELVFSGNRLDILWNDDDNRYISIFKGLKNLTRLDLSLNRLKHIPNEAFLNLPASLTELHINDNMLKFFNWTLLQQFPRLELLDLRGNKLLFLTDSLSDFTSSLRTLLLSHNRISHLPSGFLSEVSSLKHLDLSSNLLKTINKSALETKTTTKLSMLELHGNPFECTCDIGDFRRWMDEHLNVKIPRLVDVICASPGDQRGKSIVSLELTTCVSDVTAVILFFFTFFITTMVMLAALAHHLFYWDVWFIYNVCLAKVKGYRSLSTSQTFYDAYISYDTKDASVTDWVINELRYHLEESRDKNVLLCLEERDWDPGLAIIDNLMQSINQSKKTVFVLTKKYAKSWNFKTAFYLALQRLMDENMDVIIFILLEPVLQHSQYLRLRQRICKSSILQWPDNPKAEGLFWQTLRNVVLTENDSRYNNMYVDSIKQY
Experimental: (§1) HEK Blue hTLR8 cells or HEK Blue hTLR7 cells were cultured in DMEM medium supplemented with 10% fetal bovine serum, penicillin (100 U/mL) and streptomycin ([…]). Thereafter, cells were seeded in 96-well plate (45,000 cells per well), and were cultured for 24 hours in a humidified incubator (37° C., 5% CO2).
After 24 hours, the supernatant and suspending cells were aspirated and replaced with fresh serum-free DMEM.
(§2) After 24 hours, 50 μL of the medium was aspirated from each well and then added to a new 96-well plate, followed by the addition of 50 μL of Quanti-Blue in each well and the incubation at 37° C. in darkness. Changes in color would occur in the […] within 60 minutes, and the absorbance was measured at 620 nm by using the multi-mode plate reader Vrioskan Flash. Inhibition rate (%)=[R848 (OD620)−Compound (OD620)]/[R848 (OD620)−Control (OD620)]×100%. Among these, the control group was only added with the same amount of cells. Finally, the software Prism 6.0 was utilized to plot a graph and calculate IC50 values. Or, the activity of the cells treated with ligand and DMSO was defined as 100% activity, and the activity of the untreated cells was defined as 0% activity.

TLR7 = target: T2, TLR7 (Homo sapiens, UniProt Q9NYK1); experiment: Inhibition of R848-induced signaling in HEK-Blue hTLR7 cell line (Quanti-Blue); type: cell-based
T2 construct: host or cells: HEK-Blue hTLR7 (HEK293-derived SEAP reporter cells)
T2 sequence (Q9NYK1 27-1049): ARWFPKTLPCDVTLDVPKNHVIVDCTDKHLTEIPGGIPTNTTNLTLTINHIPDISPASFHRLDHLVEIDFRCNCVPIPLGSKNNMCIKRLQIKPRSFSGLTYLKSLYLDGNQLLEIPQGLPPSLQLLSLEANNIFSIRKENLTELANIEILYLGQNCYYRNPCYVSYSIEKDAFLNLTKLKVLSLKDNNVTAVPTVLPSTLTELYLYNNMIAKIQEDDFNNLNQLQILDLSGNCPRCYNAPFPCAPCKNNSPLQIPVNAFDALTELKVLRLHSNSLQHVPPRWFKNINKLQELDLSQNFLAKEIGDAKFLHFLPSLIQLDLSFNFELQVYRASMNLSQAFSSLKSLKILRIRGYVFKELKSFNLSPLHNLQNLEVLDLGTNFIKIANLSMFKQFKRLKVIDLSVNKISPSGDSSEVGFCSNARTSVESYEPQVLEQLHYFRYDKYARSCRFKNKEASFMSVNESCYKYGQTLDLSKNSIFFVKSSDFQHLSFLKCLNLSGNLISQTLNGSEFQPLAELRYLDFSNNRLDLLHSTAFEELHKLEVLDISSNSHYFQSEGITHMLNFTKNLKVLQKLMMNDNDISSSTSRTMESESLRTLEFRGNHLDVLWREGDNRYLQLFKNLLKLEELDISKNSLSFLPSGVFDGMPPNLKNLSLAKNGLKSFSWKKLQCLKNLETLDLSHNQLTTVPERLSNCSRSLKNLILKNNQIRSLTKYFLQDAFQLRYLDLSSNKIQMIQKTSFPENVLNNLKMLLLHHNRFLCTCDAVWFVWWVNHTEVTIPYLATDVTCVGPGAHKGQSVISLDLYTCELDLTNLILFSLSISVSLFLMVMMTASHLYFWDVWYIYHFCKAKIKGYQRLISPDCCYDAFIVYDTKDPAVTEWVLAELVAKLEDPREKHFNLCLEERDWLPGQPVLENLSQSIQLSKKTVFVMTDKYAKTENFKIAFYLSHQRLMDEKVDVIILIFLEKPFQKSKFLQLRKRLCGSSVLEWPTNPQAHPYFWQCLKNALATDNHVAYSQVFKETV
Experimental: as §1
After 24 hours, the supernatant and suspending cells were aspirated and replaced with fresh serum-free DMEM. Cells were treated with 1 μg/mL of R848 (agonist of TLR7/8) or 5 μg/mL of ssRNA40/LyoVec or 5 μg/mL of ORN06/LyoVec (InvivoGen) and compounds with specified concentrations, and were placed in a humidified incubator (37° C., 5% CO2) for co-culture.
as §2

Structure (SMILES)	IC50 (TLR8) [µM]	Remaining R848-induced TLR8 signaling (normalized activity; ligand+DMSO = 1, untreated = 0) (TLR8)	TLR7 (normalized inhibitory effect on R848-induced signaling) (TLR7)
Fc1cccc(-n2cnnc2SCc2c(Cl)cccc2Cl)c1 [Compound 1, 3-((2,6-dichlorobenyl)thio)-4-(3-fluorophenyl)-4H-1,2,4-triazole]	1.95 ± 0.19	–	–
Cc1nnc(SCc2c(Cl)cccc2Cl)n1-c1cccc(F)c1 [Compound 2, 3-((2,6-dichlorobenzyl)thio)-4-(3-fluorophenyl)-5-methyl-4H-1,2,4-triazole]	6.18 ± 0.29	–	–
CC(C)Sc1nnc(CCCO)n1-c1ccc(Cl)cc1Cl [Compound 12, 3-(4-(2,4-dichlorophenyl)-5-(isopropylthio)-4H-1,2,4-triazole-3-yl)propan-1-ol]	10.1 ± 0.8	–	–
OCCCc1nnc(SCC2CC2)n1-c1ccc(Cl)cc1Cl [Compound 13, 3-(5-((cyclopropylmethyl)thio)-4-(2,4-dichlorophenyl)-4H-1,2,4-triazole-3-yl)propan-1-ol]	8.01 ± 0.13	–	–
CSc1nnc(CCCO)n1-c1ccc(F)cc1F [Compound 15, 3-(4-(2,4-difluorophenyl)-5-(methylthio)-4H-1,2,4-triazole-3-yl)propan-1-ol]	2.13 ± 0.56	–	–
CSc1nnc(CCCO)n1-c1ccccc1Cl [Compound 17, 3-(4-(2-chlorophenyl)-5-(methylthio)-4H-1,2,4-triazole-3-yl)propan-1-ol]	0.98	–	–
CSc1nnc(CCCO)n1-c1cccc(Cl)c1Cl [Compound 20, 3-(4-(2,3-dichlorophenyl)-5-(methylthio)-4H-1,2,4-triazole-3-yl)propan-1-ol]	0.8 ± 0.07	–	–
CSc1nnc(CCCO)n1-c1c(Cl)cc(Cl)cc1Cl [Compound 21, 3-(5-(methylthio)-4-(2,4,6-trichlorophenyl)-4H-1,2,4-triazole-3-yl)propan-1-ol]	2.81 ± 0.44	–	–
COc1ccc(-n2c(CCCO)nnc2SC)cc1 [Compound 25, 3-(4-(4-methoxyphenyl)-5-(methylthio)-4H-1,2,4-triazole-3-yl)propan-1-ol]	3.86 ± 0.31	–	–
CSc1nnc(CCCO)n1-c1ccc(C(F)(F)F)cc1 [Compound 26, 3-(5-(methylthio)-4-(4-(trifluoromethyl)phenyl)-4H-1,2,4-triazole-3-yl)propan-1-ol]	4.84 ± 0.82	–	–
OCCCc1nnc(SCc2c(Cl)cccc2Cl)n1-c1ccc(F)cc1F [Compound 33, 3-(5-((2,6-dichlorobenzyl)thio)-4-(2,4-difluorophenyl)-4H-1,2,4-triazole-3-yl)propan-1-ol]	8.44 ± 0.78	–	–
OCCCCc1nnc(SCc2c(Cl)cccc2Cl)n1-c1ccc(F)cc1F [Compound 34, 4-(5-((2,6-dichlorobenzyl)thio)-4-(2,4-difluorophenyl)-4H-1,2,4-triazole-3-yl)butan-1-ol]	11.4 ± 0.7	–	–
CSc1nnc(CCCO)n1-c1cnc2ccccc2c1 [Compound 36, 3-(5-(methylthio)-4-(quinolin-3-yl)-4H-1,2,4-triazole-3-yl)propan-1-ol]	0.74	–	–
CCOCc1nc(C(C)(C)O)c(-c2ccccc2)n1CC(C)(C)O [Compound 47, 1-[2-(ethoxymethyl)-4-(2-hydroxypropan-2-yl)-5-phenyl-1H-imidazole-1-yl]-2-methylpropan-2-ol]	–	0.9 ± 0.1	0.8 ± 0.0
CCOCc1nc(-c2ccccc2)c(-c2ccccc2)n1CC(C)(C)O [Compound 49, 1-[2-(ethoxymethyl)-4,5-diphenyl-1H-imidazole-1-yl]-2-methylpropan-2-ol]	–	0.6 ± 0.0	0.8 ± 0.0
CC(C)Cn1cnc(I)c1-c1ccccc1 [Compound 59, 4-iodo-1-(2-methylpropyl)-5-phenyl-1H-imidazole]	–	0.2 ± 0.1	0.2 ± 0.1

The remaining molecules from weak to strong by IC50 (TLR8), led by results:

IC50 (TLR8) [µM]	Remaining R848-induced TLR8 signaling (normalized activity; ligand+DMSO = 1, untreated = 0) (TLR8)	TLR7 (normalized inhibitory effect on R848-induced signaling) (TLR7)	Structure (SMILES)
0.65 ± 0.01	–	–	CSc1nnc(CCCO)n1-c1ccc2ncccc2c1 [Compound 37, 3-(5-(methylthio)-4-(quinolin-6-yl)-4H-1,2,4-triazole-3-yl)propan-1-ol]
0.63 ± 0.02	–	–	CCCc1nnc(SC)n1-c1ccc(Cl)cc1Cl [Compound 7, 4-(2,4-dichlorophenyl)-3-(methylthio)-5-propyl-4H-1,2,4-triazole]
0.6 ± 0.1	–	–	CSc1nnc(CCCO)n1-c1ccc(Cl)c(Cl)c1Cl [Compound 22, 3-(5-(methylthio)-4-(2,3,4-trichlorophenyl)-4H-1,2,4-triazole-3-yl)propan-1-ol]
0.59 ± 0.03	–	–	CSc1nnc(CCO)n1-c1ccc(Cl)cc1Cl [Compound 4, 2-(4-(2,4-dichlorophenyl)-5-(methylthio)-4H-1,2,4-triazole-3-yl)ethan-1-ol]
0.39 ± 0.04	–	–	CCSc1nnc(CCCO)n1-c1ccc(Cl)cc1Cl [Compound 11, 3-(4-(2,4-dichlorophenyl)-5-(ethylthio)-4H-1,2,4-triazole-3-yl)propan-1-ol]
0.35 ± 0.02	–	–	CSc1nnc(CCCO)n1-c1cccc(Cl)c1 [Compound 18, 3-(4-(3-chlorophenyl)-5-(methylthio)-4H-1,2,4-triazole-3-yl)propan-1-ol]
0.19 ± 0.01	–	–	CSc1nnc(CCCO)n1-c1ccc(Cl)c(Cl)c1 [Compound 19, 3-(4-(3,4-dichlorophenyl)-5-(methylthio)-4H-1,2,4-triazole-3-yl)propan-1-ol]
0.11 ± 0.01	–	–	CSc1nnc(CCCO)n1-c1cc(Cl)c(Cl)c(Cl)c1 [Compound 23, 3-(5-(methylthio)-4-(3,4,5-trichlorophenyl)-4H-1,2,4-triazole-3-yl)propan-1-ol]
